Entries after “also recorded” stand apart in the source; their conditions may differ. Read-outs that look alike come from different tables or passages of the source.
Assays:
[1] = Rat pharmacokinetics per os (plasma AUC, liver concentration)
Protocol: (§1) Plasma samples were collected at time points between 2 minutes and 24 h, and compound levels were determined by RP-HPLC. Liver samples were collected post mortem in rat and following anesthesia (0.5 h prior to biopsy) in dog. Liver samples were weighed, homogenized, and diluted using techniques known to those skilled in the art, and compound levels were determined by RP-HPLC.
(§2) Pharmacokinetic parameters were calculated based on non-compartmental analysis (e.g., using WATSON®, WINNOLIN®). Predose concentrations that were below the limit of quantitation (BLQ) were assigned a value of 0. […] AUC values were calculated using linear trapezoidal method for ascending concentrations and the log trapezoidal method for descending concentrations.

[2] = In vivo covalent protein binding of 3H-labelled compound; conditions: Rat @ 6 h, 20 mg/kg oral
Protocol: In-Vivo Covalent Binding^4: […] Plasma and liver were collected and flash frozen/stored at −80° C. before analysis. Counting of the plasma samples: Place a 200 μL aliquot in a 20 mL scintillation vial. Add 500 μL of SOLVABLE™ and incubate at 1 h with shaking at 55° C. Remove, allow to cool prior to the addition of 15 mL scintillation cocktail, and count. […] Tissue homogenization: […] Counting of the liver homogenate: Aliquots were placed in a 20 mL scintillation vial, diluted with 1 mL of SOLVABLE™ and incubated for 1 h with shaking at 55° C. After removal from the incubator and cooling 15 mL scintillation cocktail and 30% H2O2 were added and the radioactivity counted. Protein precipitation: […] Protein precipitate resuspension: Sonication (minimal intensity, <5 sec) and vortexing until the pellet crumbles in 80% MeOH:20% water. Wash of the protein pellet: 2-5 mL 80:20 MeOH:water. If needed, remove 1.0 mL of the supernatant, add 15 mL of scintillation cocktail and count. Continue to wash the protein pellet until radioactivity in supernatant is <200 DPM or DPMs cease to decrease by more than 200 in consecutive washes. Dissolution of the final pellet: 1 mL of 1 N NaOH or Solvable™, incubated at 50° C. overnight or until completely dissolved. Counting of the final pellet: 1 mL of dissolved pellet, 15 mL scintillation cocktail (if another scintillation cocktail other than ULTIMA GOLD™ is used, pellet may require neutralization using 1 N HCl), and count. Protein concentration of the final pellet: BCA or BIO-RAD kit using BSA as a standard. Counting blank samples: 15 mL scintillation cocktail, in duplicate. Counting of the dosing solution: count a known volume of the dosing solution in triplicate. Data Analysis: Average the radioactivity counts (DPM) of the dosing solution and calculate the specific activity of the dosing solution in μCi/mol. Average the radioactivity counts of the blank samples. Subtract the counts of the averaged blank sample from the counts obtained from each liver and plasma pellet. Calculate the amount of radioactivity (μCi) per unit volume (L) for each liver and plasma pellet. Calculate the concentration of radioactivity in each plasma and liver pellet by dividing the value obtained above (μCi/L) by the specific activity (μCi/mol). Calculate the amount of covalently bound radioactivity to protein in pmol/mg protein.

[3] = Dog pharmacokinetics per os (plasma AUC, liver concentration)
Protocol: as §1, §2

[4] = Physical properties: equilibrium solubility and salt disproportionation (XRPD, NMR); type: physicochemical
Protocol: After centrifuging, the supernatant was analyzed by reversed-phase HPLC and the equilibrium solubility determined by comparison with a calibration curve. The solid material was in part transferred onto an XRPD plate, dried and then analyzed by X-Ray Powder Diffraction. The XRPD pattern was compared with positive controls for crystalline K+ salt, crystalline zwitterionic (or acidic) and amorphous forms of the test compound.

[5] = target: NS 3/4A 1b (Hepatitis C virus genotype 1b, UniProt P26663); test: biochemical; conditions: genotype 1b enzyme; read-out: NS 3/4A Inhibitory Activity (Ki) lb
Protocol: A NS3 protease assay can be performed, for example, in a final volume of 100 μl assay buffer containing 50 mM HEPES, pH 7.5, 150 mM NaCl, 15% glycerol, 0.15% TRITON X-100, 10 mM DTT, and 0.1% PEG 8000. NS3 and NS4A protease is pre-incubated with various concentrations of inhibitors in DMSO for 30 minutes. The reaction is initiated by adding the TRF peptide substrate (final concentration 100 nM). NS3 mediated hydrolysis of the substrate is quenched after 1 hour at room temperature with 100 μl of 500 mM MES, pH 5.5. […] IC50 values are derived using a standard four-parameter fit to the data. […] See P. Gallinari et al., 38 BIOCHEM. […] BIOCHEM. […] V. General Compound Production
(§3) NS 3/4A Inhibitory Activity^1 (Ki): NS 3/4A Inhibitory Activity was determined as described in Section IV.

[6] = test system: HCV replicon gt1b; test: HCV replicon activity, genotype 1b; type: cell-based; conditions: Hepatitis C virus; genotype 1b replicon; 50% viral replication suppression; read-out: Replicon Activity EC50 gtlb
[7] = target: 1b mutant enzyme A156S (Hepatitis C virus genotype 1b, UniProt P26663, A1182S); test: NS3/4A TRF enzyme assay, 1b mutant A156S; type: biochemical, hepatitis C virus (HCV)
Protocol: (§4) A NS3 protease assay can be performed, for example, in a final volume of 100 μl assay buffer containing 50 mM HEPES, pH 7.5, 150 mM NaCl, 15% glycerol, 0.15% TRITON X-100, 10 mM DTT, and 0.1% PEG 8000. NS3 and NS4A protease is pre-incubated with various concentrations of inhibitors in DMSO for 30 minutes. The reaction is initiated by adding the TRF peptide substrate (final concentration 100 nM). NS3 mediated hydrolysis of the substrate is quenched after 1 hour at room temperature with 100 μl of 500 mM MES, pH 5.5. […] Testing concentrations of different enzyme forms are selected to result in a signal to background ratio (S/B) of 10-30. IC50 values are derived using a standard four-parameter fit to the data. Ki values are derived from IC50 values using the following formula, IC50=Ki(1+[S]/KM), Eqn (1), where [S] is the concentration of substrate peptide in the reaction and KM is the Michaelis constant. See P. Gallinari et al., 38 BIOCHEM. […] BIOCHEM. […] V. General Compound Production
as §3

[8] = target: 1b mutant enzyme D168E (Hepatitis C virus genotype 1b, UniProt P26663, D1194E); test: NS3/4A TRF enzyme assay, 1b mutant D168E; type: biochemical, hepatitis C virus (HCV)
Protocol: as §4, §3

[9] = target: 1b mutant enzyme D168Y (Hepatitis C virus genotype 1b, UniProt P26663, D1194Y); test: NS3/4A TRF enzyme assay, 1b mutant D168Y; type: biochemical, hepatitis C virus (HCV)
Protocol: as §4, §3

[10] = target: 1b mutant enzyme D168G (Hepatitis C virus genotype 1b, UniProt P26663, D1194G); test: NS3/4A TRF enzyme assay, 1b mutant D168G; type: biochemical, hepatitis C virus (HCV)
Protocol: as §4, §3

[11] = target: 1b mutant enzyme R155K (Hepatitis C virus genotype 1b, UniProt P26663, R1181K); test: NS3/4A TRF enzyme assay, 1b mutant R155K; type: biochemical, hepatitis C virus (HCV)
Protocol: as §4, §3

[12] = target: 1b mutant enzyme R155Q (Hepatitis C virus genotype 1b, UniProt P26663, R1181Q); test: NS3/4A TRF enzyme assay, 1b mutant R155Q; type: biochemical, hepatitis C virus (HCV)
Protocol: as §4, §3

[13] = target: 1b mutant enzyme A156T (Hepatitis C virus genotype 1b, UniProt P26663, A1182T); test: NS3/4A TRF enzyme assay, 1b mutant A156T; type: biochemical, hepatitis C virus (HCV)
Protocol: as §4, §3

[14] = target: 1b mutant enzyme A156V (Hepatitis C virus genotype 1b, UniProt P26663, A1182V); test: NS3/4A TRF enzyme assay, 1b mutant A156V; type: biochemical, hepatitis C virus (HCV)
Protocol: as §4, §3

[15] = target: 1b mutant enzyme D168T (Hepatitis C virus genotype 1b, UniProt P26663, D1194T); test: NS3/4A TRF enzyme assay, 1b mutant D168T; type: biochemical, hepatitis C virus (HCV)
Protocol: as §4, §3

[16] = target: 1b mutant enzyme R155N (Hepatitis C virus genotype 1b, UniProt P26663, R1181N); test: NS3/4A TRF enzyme assay, 1b mutant R155N; type: biochemical, hepatitis C virus (HCV)
Protocol: as §4, §3

[17] = target: 1b mutant enzyme D168A (Hepatitis C virus genotype 1b, UniProt P26663, D1194A); test: NS3/4A TRF enzyme assay, 1b mutant D168A; type: biochemical, hepatitis C virus (HCV)
Protocol: as §4, §3

[18] = target: 1b mutant enzyme R155G (Hepatitis C virus genotype 1b, UniProt P26663, R1181G); test: NS3/4A TRF enzyme assay, 1b mutant R155G; type: biochemical, hepatitis C virus (HCV)
Protocol: as §4, §3

[19] = target: 1b mutant enzyme D168V (Hepatitis C virus genotype 1b, UniProt P26663, D1194V); test: NS3/4A TRF enzyme assay, 1b mutant D168V; type: biochemical, hepatitis C virus (HCV)
Protocol: as §4, §3

[20] = target: 1b mutant enzyme D168Q (Hepatitis C virus genotype 1b, UniProt P26663, D1194Q); test: NS3/4A TRF enzyme assay, 1b mutant D168Q; type: biochemical, hepatitis C virus (HCV)
Protocol: as §4, §3

SMILES: C=C[C@@H]1C[C@]1(NC(=O)[C@@H]1C[C@@H]2CN1C(=O)[C@H](C(C)(C)C)NC(=O)O[C@@H]1C[C@H]1CCCCCc1nc3ccc(OC)cc3nc1O2)C(=O)[N-]S(=O)(=O)C1CC1.[K+] [Example 1, Potassium {[(1R,2S)-1-({[(1aR,5S,8S,10R,22aR)-5-tert-butyl-14-methoxy-3,6-dioxo-1,1a,3,4,5,6,9,10,18,19,20,21,22,22a-tetradecahydro-8H-7,10-methanocyclopropa[18,19][1,10,3,6]dioxadiazacyclononadecino[11,12-b]quinoxalin-8-yl]carbonyl}amino)-2-vinylcyclopropyl]carbonyl}(cyclopropylsulfonyl)azanide]
- Rat Liver Concentration @ 24 h (25 mpk per os) ([1]; 25 mpk per os): 27.9 µM
- Rat Plasma AUC @ 25mpk per os ([1]; 25 mpk per os, plasma): 20.6 µM·h
- Covalent Protein Binding In Vivo, liver ([2]; LOQ = 3 pmol/mg): liver = LOQ
- Covalent Protein Binding In Vivo, plasma ([2]; LOQ = 3 pmol/mg, 20 mg/kg): undetectable binding; also recorded: plasma = LOQ,
- Dog Liver Concentration @ 24 h (5mpk per os) ([3]; 5 mpk per os): 120 µM
- Dog Plasma AUC @ 5mpk per os ([3]; 5 mpk per os, plasma): 48.6 µM·h
- solubility at 24 h ([4]; thermodynamic from solid; K+ salt form, water; read-out: Aqueous solubility of K+ salt form): 1800 µg/mL

SMILES: C=C[C@@H]1C[C@]1(NC(=O)[C@@H]1C[C@@H]2CN1C(=O)[C@H](C(C)(C)C)NC(=O)O[C@@H]1CCC[C@H]1CCCCCc1nc3ccc(OC)cc3cc1O2)C(=O)NS(=O)(=O)C1CC1 [WO 2008/057209 Example 103]
- Covalent Protein Binding In Vivo, liver [2]: liver = 24 pmol eq./mg
- Covalent Protein Binding In Vivo, plasma [2]: plasma = 6 pmol eq./mg

SMILES: C=C[C@@H]1C[C@]1(NC(=O)[C@@H]1C[C@@H]2CN1C(=O)[C@H](C1CCCC1)NC(=O)O[C@@H]1CCC[C@H]1CCCCCc1nc3ccccc3cc1O2)C(=O)NS(=O)(=O)C1CC1 [WO 2008/057209 Example 96]
- Covalent Protein Binding In Vivo, liver [2]: liver = 63 pmol eq./mg
- Covalent Protein Binding In Vivo, plasma [2]: plasma = 6 pmol eq./mg

SMILES: C=C[C@@H]1C[C@]1(NC(=O)[C@@H]1C[C@@H]2CN1C(=O)[C@H](C(C)(C)C)NC(=O)O[C@@H]1C[C@H]1CCCCCc1nc3ccc(OC)cc3cc1O2)C(=O)NS(=O)(=O)C1CC1 [WO 2008/057209 Example 110]
- Rat Liver Concentration @ 24 h (25 mpk per os) ([1]; 25 mpk per os): 8.5 µM
- AUC ([1]; plasma, po, 25 mg/kg): 5.8 µM·h
- Ki [5]: < 0.016 nM
- Covalent Protein Binding In Vivo, liver ([2]; LOQ = 3 pmol/mg): liver = BLQ
- Covalent Protein Binding In Vivo, plasma ([2]; LOQ = 3 pmol/mg): plasma = BLQ,
- EC50 [6]: 5 nM
- Dog Liver Concentration @ 24 h (5mpk per os) ([3]; 5 mpk per os): 3.3 µM
- AUC ([3]; plasma, po, 5 mg/kg): 1 µM·h
- solubility at 24 h ([4]; water, thermodynamic from solid, K+ salt form, read-out: Aqueous solubility of K+ salt form): 9700 µg/mL
- solubility at 24 h ([4]; water, thermodynamic from solid, crystalline zwitterionic form from disproportionation of the K+ salt, read-out: Aqueous solubility of crystalline zwitterionic form): < 9 µg/mL

SMILES: C=C[C@@H]1C[C@]1(NC(=O)[C@@H]1C[C@@H]2CN1C(=O)[C@H](C1CCCC1)NC(=O)O[C@@H]1CCC[C@H]1CCCCCc1nc3ccccc3nc1O2)C(=O)NS(=O)(=O)C1CC1 [WO 2008/057209 Example 108]
- Covalent Protein Binding In Vivo, liver [2]: liver = 38 pmol eq./mg
- Covalent Protein Binding In Vivo, plasma [2]: plasma = 15 pmol eq./mg

SMILES: C=C[C@@H]1C[C@]1(NC(=O)[C@@H]1C[C@@H]2CN1C(=O)[C@H](C(C)(C)C)NC(=O)O[C@@H]1CCC[C@H]1CCCCCc1nc3ccc(OC)cc3nc1O2)C(=O)NS(=O)(=O)C1CC1 [WO 2008/057209 Example 118]
- Ki [7]: 0.1 nM
- Ki [8]: 0.12 nM
- Ki [9]: 1.5 nM
- Ki [10]: 0.45 nM
- Ki [11]: 0.08 nM
- Ki [12]: 1.9 nM
- Ki [5]: < 0.016 nM
- Ki [13]: 3.4 nM
- Ki [14]: 15 nM
- EC50 [6]: 3 nM
- Ki [15]: 0.78 nM
- Ki [16]: 0.56 nM
- Ki [17]: 0.86 nM
- Ki [18]: 2.3 nM
- Ki [19]: 0.65 nM
- Ki [20]: 0.42 nM

From US8080654B2, “Macrocyclic quinoxaline compounds as HCV NS3 protease inhibitors” (Insituto di Ricerche di Biologia Molecolare P. Angeletti SpA, priority 2008, dated 2011)
